What was measured:
Assay in all cases: KINOMEscan
Format in all cases: binding
Conditions in all cases: 1 μM
PIKFYVE = PIKFYVE (Homo sapiens, UniProt Q9Y2I7)
BRAF = biological target: T1, BRAF (Homo sapiens, UniProt P15056)
T1 construct: purchased Eurofins DiscoverX Corporation (KINOMEscan)

DYRK1A = biological target: T2, DYRK1A (Homo sapiens, UniProt Q13627)
T2 construct: purchased Eurofins DiscoverX Corporation

YSK4 = YSK4 (Homo sapiens, UniProt Q56UN5)
FGFR3(G697C) = FGFR3(G697C) (Homo sapiens, UniProt P22607, G697C)
IRAK4 = biological target: T3, IRAK4 (Homo sapiens, UniProt Q9NWZ3)
T3 construct: purchased Eurofins DiscoverX (KINOMEscan)

CAMK4 = biological target: T4, CAMK4 (Homo sapiens, UniProt Q16566)
T4 construct: purchased Eurofins DiscoverX Corporation (KINOMEscan)

NIM1 = NIM1 (Homo sapiens, UniProt Q8IY84)
MARK2 = biological target: T5, MARK2 (Homo sapiens, UniProt Q7KZI7)
T5 construct: purchased Eurofins DiscoverX Corporation

PIP5K2B = PIP5K2B (Homo sapiens, UniProt P78356)
PDGFRA = PDGFRA (Homo sapiens, UniProt P16234)
DCAMKL1 = biological target: T6, DCAMKL1 (Homo sapiens, UniProt O15075)
T6 construct: purchased Eurofins DiscoverX Corporation

RET = RET (Homo sapiens, UniProt P07949)
EPHB4 = EPHB4 (Homo sapiens, UniProt P54760)
PIM2 = PIM2 (Homo sapiens, UniProt Q9P1W9)
TESK1 = biological target: T7, TESK1 (Homo sapiens, UniProt Q15569)
T7 construct: purchased Eurofins DiscoverX Corporation

MAP4K4 = biological target: T8, MAP4K4 (Homo sapiens, UniProt O95819)
T8 construct: purchased Eurofins DiscoverX Corporation

MST2 = biological target: T9, MST2 (Homo sapiens, UniProt Q13188)
T9 construct: purchased Eurofins DiscoverX Corporation

[1] = biological target: RPS6KA4(Kin.Dom.2-C-terminal) (Homo sapiens, UniProt O75676)
EPHB1 = EPHB1 (Homo sapiens, UniProt P54762)
KIT(V559D+T670I) = biological target: T10, KIT(V559D+T670I) (Homo sapiens, UniProt P10721, T670I/V559D)
T10 construct: purchased Eurofins DiscoverX Corporation

PKAC-beta = PKAC-beta (Homo sapiens, UniProt P22694)
PIM3 = PIM3 (Homo sapiens, UniProt Q86V86)
FLT1 = FLT1 (Homo sapiens, UniProt P17948)
ERK2 = ERK2 (Homo sapiens, UniProt P28482)
MAP3K2 = biological target: T11, MAP3K2 (Homo sapiens, UniProt Q9Y2U5)
T11 construct: purchased Eurofins DiscoverX Corporation

STK33 = STK33 (Homo sapiens, UniProt Q9BYT3)
IGF1R = biological target: T12, IGF1R (Homo sapiens, UniProt P08069)
T12 construct: purchased Eurofins DiscoverX (KINOMEscan)

SRPK1 = SRPK1 (Homo sapiens, UniProt Q96SB4)
PFPK5(P.falciparum) = PFPK5(P.falciparum) (Plasmodium falciparum, UniProt P61075)
SBK1 = SBK1 (Homo sapiens, UniProt Q52WX2)
IKK-alpha = biological target: T13, IKK-alpha (Homo sapiens, UniProt O15111)
T13 construct: purchased Eurofins DiscoverX (KINOMEscan)

BLK = BLK (Homo sapiens, UniProt P51451)
NEK1 = biological target: T14, NEK1 (Homo sapiens, UniProt Q96PY6)
T14 construct: purchased Eurofins DiscoverX Corporation

FLT3(D835V) = FLT3(D835V) (Homo sapiens, UniProt P36888, D835V)
TNIK = biological target: T15, TNIK (Homo sapiens, UniProt Q9UKE5)
T15 construct: purchased Eurofins DiscoverX Corporation

ACVRL1 = ACVRL1 (Homo sapiens, UniProt P37023)
VPS34 = VPS34 (Homo sapiens, UniProt Q8NEB9)
PLK3 = PLK3 (Homo sapiens, UniProt Q9H4B4)
ZAP70 = ZAP70 (Homo sapiens, UniProt P43403)
RIPK4 = RIPK4 (Homo sapiens, UniProt P57078)
MST1R = biological target: T16, MST1R (Homo sapiens, UniProt Q04912)
T16 construct: purchased Eurofins DiscoverX Corporation

PIK3CA(C420R) = PIK3CA(C420R) (Homo sapiens, UniProt P42336, C420R)

SRPK1, sequence (Q96SB4 whole entry): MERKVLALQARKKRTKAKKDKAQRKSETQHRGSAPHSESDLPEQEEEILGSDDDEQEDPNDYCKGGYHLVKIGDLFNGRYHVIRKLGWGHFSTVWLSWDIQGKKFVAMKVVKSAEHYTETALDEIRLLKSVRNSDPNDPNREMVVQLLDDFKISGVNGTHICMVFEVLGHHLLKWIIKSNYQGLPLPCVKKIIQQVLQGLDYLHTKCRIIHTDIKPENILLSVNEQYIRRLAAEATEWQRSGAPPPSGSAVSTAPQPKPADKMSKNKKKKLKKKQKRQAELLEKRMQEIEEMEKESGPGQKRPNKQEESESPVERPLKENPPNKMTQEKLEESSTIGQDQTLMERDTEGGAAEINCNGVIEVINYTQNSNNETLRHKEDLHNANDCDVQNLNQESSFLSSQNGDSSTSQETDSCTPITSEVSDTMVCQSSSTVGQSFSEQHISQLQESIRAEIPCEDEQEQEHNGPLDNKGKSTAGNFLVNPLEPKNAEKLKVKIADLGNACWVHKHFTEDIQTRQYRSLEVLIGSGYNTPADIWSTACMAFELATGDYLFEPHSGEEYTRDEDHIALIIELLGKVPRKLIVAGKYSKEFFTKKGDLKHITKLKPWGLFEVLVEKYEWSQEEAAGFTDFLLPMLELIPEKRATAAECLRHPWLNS
T4 sequence (Q16566 whole entry): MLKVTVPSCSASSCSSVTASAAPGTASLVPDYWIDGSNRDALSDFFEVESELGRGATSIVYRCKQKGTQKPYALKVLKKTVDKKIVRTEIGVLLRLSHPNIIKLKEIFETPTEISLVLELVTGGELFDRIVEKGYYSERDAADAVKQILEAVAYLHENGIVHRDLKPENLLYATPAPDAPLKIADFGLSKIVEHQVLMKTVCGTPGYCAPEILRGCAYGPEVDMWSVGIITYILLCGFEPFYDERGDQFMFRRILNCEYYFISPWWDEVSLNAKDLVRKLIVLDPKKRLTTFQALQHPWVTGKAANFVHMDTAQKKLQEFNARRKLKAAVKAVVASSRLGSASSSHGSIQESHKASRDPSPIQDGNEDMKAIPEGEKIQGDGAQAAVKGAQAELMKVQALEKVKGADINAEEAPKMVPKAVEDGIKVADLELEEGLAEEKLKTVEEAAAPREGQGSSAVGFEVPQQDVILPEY
T11 sequence (Q9Y2U5 whole entry): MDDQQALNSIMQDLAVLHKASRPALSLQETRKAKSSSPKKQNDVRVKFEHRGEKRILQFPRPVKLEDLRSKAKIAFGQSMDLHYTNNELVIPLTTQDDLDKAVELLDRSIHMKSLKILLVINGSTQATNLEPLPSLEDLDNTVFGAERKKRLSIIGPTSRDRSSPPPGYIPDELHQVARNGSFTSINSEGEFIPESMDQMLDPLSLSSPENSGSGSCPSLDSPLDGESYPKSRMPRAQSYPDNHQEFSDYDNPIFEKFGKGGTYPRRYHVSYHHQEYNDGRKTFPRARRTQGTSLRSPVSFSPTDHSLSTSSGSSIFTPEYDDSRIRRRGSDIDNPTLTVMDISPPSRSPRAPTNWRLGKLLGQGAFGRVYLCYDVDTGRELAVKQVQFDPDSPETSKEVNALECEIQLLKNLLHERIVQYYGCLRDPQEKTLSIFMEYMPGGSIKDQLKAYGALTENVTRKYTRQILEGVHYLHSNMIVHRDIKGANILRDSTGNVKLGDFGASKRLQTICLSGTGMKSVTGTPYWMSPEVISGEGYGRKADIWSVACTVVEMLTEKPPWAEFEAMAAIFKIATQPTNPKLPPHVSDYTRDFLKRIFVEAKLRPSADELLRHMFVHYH
RPS6KA4(Kin.Dom.2-C-terminal), sequence (O75676 411-674 limits assumed): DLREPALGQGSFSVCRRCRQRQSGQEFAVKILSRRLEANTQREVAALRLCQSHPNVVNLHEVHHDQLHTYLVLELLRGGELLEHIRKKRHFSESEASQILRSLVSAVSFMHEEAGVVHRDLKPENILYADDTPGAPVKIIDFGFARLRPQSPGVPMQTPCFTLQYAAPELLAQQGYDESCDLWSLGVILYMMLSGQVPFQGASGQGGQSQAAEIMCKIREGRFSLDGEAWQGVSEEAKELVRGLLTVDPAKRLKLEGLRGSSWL
T5 sequence (Q7KZI7 whole entry): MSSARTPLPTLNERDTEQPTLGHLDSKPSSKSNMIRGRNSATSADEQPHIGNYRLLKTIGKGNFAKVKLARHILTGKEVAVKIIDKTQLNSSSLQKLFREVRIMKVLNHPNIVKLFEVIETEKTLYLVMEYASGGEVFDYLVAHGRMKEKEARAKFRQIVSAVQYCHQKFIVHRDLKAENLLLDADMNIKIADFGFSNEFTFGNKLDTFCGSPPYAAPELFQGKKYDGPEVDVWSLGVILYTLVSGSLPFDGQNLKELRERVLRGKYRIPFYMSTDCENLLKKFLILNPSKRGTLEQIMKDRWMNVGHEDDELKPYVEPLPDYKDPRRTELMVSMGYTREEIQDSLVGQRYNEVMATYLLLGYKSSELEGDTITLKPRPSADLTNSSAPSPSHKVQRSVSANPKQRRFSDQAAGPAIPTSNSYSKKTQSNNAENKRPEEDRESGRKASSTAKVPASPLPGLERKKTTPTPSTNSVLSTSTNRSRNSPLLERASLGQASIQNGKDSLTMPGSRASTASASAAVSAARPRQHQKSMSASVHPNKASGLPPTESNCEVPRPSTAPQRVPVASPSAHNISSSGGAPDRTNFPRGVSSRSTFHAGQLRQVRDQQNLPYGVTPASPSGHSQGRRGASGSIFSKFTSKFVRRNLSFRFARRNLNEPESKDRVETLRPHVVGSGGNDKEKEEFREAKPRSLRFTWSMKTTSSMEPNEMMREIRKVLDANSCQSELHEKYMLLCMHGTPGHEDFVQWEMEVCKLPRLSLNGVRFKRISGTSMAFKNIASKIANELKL
T15 sequence (Q9UKE5 whole entry): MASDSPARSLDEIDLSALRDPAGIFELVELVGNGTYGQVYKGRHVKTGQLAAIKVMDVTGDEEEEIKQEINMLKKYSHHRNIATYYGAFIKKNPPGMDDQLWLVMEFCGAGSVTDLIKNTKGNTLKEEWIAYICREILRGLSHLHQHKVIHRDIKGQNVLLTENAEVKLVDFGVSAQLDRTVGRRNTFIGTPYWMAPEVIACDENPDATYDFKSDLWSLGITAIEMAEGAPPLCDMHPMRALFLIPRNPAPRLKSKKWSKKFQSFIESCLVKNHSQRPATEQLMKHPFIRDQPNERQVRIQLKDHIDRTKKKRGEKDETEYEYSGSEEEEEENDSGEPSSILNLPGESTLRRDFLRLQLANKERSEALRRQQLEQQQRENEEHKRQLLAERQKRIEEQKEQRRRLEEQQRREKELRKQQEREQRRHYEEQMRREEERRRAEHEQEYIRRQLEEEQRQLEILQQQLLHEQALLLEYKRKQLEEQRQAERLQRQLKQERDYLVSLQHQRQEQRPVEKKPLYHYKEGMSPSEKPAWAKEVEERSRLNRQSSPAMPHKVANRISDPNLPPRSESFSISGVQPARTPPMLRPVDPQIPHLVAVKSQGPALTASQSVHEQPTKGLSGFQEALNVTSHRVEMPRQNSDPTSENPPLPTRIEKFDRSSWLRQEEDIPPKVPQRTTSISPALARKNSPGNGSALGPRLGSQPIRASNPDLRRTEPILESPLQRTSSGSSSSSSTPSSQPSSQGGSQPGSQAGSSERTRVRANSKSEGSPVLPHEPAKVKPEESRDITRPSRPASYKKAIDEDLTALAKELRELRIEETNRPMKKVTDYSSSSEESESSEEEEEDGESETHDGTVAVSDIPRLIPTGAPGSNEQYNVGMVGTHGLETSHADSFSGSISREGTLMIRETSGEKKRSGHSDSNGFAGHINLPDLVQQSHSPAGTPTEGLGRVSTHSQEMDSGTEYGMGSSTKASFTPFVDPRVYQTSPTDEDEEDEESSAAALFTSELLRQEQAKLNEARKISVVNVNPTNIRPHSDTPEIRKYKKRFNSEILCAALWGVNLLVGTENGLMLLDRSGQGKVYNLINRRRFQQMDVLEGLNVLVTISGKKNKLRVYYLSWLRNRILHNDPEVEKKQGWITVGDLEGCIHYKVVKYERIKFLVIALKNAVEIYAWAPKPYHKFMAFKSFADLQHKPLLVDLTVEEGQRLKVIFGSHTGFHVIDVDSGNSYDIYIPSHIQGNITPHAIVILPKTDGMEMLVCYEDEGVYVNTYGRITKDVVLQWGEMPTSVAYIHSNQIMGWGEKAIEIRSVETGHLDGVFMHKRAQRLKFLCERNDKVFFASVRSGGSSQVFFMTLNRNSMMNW
ACVRL1, sequence (P37023 22-503): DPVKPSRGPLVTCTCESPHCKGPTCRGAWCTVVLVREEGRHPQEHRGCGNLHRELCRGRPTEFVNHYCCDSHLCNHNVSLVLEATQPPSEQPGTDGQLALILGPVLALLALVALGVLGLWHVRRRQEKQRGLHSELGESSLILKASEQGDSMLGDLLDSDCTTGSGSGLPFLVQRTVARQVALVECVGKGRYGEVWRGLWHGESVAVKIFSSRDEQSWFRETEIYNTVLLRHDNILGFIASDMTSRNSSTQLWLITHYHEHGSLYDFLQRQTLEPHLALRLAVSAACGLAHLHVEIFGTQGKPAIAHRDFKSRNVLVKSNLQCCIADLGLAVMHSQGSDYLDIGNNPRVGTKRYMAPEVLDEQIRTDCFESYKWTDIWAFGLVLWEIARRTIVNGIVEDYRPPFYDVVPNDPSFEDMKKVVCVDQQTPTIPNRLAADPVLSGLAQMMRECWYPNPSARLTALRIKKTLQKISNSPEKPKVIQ
PIM2, sequence (Q9P1W9 whole entry): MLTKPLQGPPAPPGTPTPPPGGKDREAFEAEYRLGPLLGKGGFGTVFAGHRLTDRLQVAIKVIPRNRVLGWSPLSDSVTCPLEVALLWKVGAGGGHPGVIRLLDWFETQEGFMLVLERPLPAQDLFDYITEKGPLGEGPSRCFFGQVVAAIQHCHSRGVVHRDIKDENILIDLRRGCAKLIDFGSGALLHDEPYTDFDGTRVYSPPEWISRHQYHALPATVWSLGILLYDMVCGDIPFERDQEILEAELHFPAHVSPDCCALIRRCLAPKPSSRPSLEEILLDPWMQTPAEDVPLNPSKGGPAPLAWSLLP

For C=CC(=O)Nc1ccc(OC)c(Nc2cc(-c3[nH]c(CC)nc3-c3cccc(NC(=O)c4cccc5c4NC(=O)c4ccccc4N5)c3)ccn2)c1 [Compound 4], the POC (PIKFYVE) was 94% of control, the POC (BRAF) was 90% of control and the POC (DYRK1A) was 100% of control. The POC (YSK4) was 88% of control, the POC (FGFR3(G697C)) was 100% of control and the POC (IRAK4) was 43% of control. For the same molecule, the POC (CAMK4) was 99% of control, the POC (NIM1) was 78% of control and the POC (MARK2) was 85% of control. The POC (PIP5K2B) was 100% of control, the POC (PDGFRA) was 69% of control and the POC (DCAMKL1) was 100% of control. For the same molecule, the POC (RET) was 99% of control, the POC (EPHB4) was 100% of control and the POC (PIM2) was 88% of control. For the same molecule, the POC (TESK1) was 94% of control, the POC (MAP4K4) was 6.1% of control and the POC (MST2) was 14% of control. For the same molecule, the POC [1] was 75% of control, the POC (EPHB1) was 92% of control and the POC (KIT(V559D+T670I)) was 95% of control. The POC (PKAC-beta) was 98% of control, the POC (PIM3) was 100% of control and the POC (FLT1) was 100% of control. For the same molecule, the POC (ERK2) was 100% of control, the POC (MAP3K2) was 100% of control and the POC (STK33) was 100% of control. The POC (IGF1R) was 90% of control, the POC (SRPK1) was 100% of control and the POC (PFPK5(P.falciparum)) was 100% of control. For the same molecule, the POC (SBK1) was 84% of control, the POC (IKK-alpha) was 100% of control and the POC (BLK) was 1.7% of control. For the same molecule, the POC (NEK1) was 90% of control, the POC (FLT3(D835V)) was 100% of control and the POC (TNIK) was 33% of control. The POC (ACVRL1) was 75% of control, the POC (VPS34) was 84% of control and the POC (PLK3) was 87% of control. For the same molecule, the POC (ZAP70) was 97% of control, the POC (RIPK4) was 100% of control and the POC (MST1R) was 85% of control. The POC (PIK3CA(C420R)) was 66% of control.
